Reference: patent US6369093B1, “Pyrazole carboxanilide fungicide” (Bayer Aktiengesellschaft, priority 1998, dated 2002)

Legend:
Venturia inaequalis = assay: Venturia test (apple)/protective; assay type: in vivo; conditions: apple plants, protective spray, application rate 100 g/ha, evaluation 12 days after inoculation
Protocol: To produce a suitable preparation of active compound, 1 part by weight of active compound is mixed with the stated amounts of solvent and emulsifier, and the concentrate is diluted with water to the desired concentration.
To test for protective activity, young plants are sprayed with the preparation of active compound at the stated application rate. After the spray coating has dried on, the plants are inoculated with an aqueous conidia suspension of the causative organism of apple scab Venturia inaequalis and then remain in an incubation cabin at 20° C. and 100% relative atmospheric humidity for 1 day.
The plants are then placed in a greenhouse at about 21° C. and a relative atmospheric humidity of about 90%.
Evaluation is carried out 12 days after the inoculation. 0% means an efficacy which corresponds to that of the control, whereas an efficacy of 100% means that no infection is observed.

Pyrenophora teres = Pyrenophora teres test (barley)/protective; assay type: in vivo; conditions: barley plants, protective spray, application rate 250 g/ha, evaluation 7 days after inoculation
Protocol: [table] To produce a suitable preparation of active compound, 1 part by weight of active compound is mixed with the stated amounts of solvent and emulsifier, and the concentrate is diluted with water to the desired concentration. To test for protective activity, young plants are sprayed with the preparation of active compound at the stated application rate. After the spray coating has dried on, the plants are sprayed with a conidia suspension of Pyrenophora teres. The plants remain in an incubation cabin at 20° C. and 100% relative atmospheric humidity for 48 hours. The plants are then placed in a greenhouse at a temperature of about 20° C. and a relative atmospheric humidity of about 80%. Evaluation is carried out 7 days after the inoculation. 0% means an efficacy which corresponds to that of the control, whereas an efficacy of 100% means that no infection is observed.

Podosphaera leucotricha = assay: Podosphaera test (apple)/protective; assay type: in vivo; conditions: apple plants, protective spray, application rate 100 g/ha, evaluation 10 days after inoculation
Protocol: (§1) [table] To produce a suitable preparation of active compound, 1 part by weight of active compound is mixed with the stated amounts of solvent and emulsifier, and the concentrate is diluted with water to the desired concentration. To test for protective activity, young plants are sprayed with the preparation of active compound at the stated application rate. After the spray coating has dried on, the plants are inoculated with an aqueous spore suspension of the causative organism of apple mildew Podosphaera leucotricha. The plants are then placed in a greenhouse at about 23° C. and a relative atmospheric humidity of about 70%. Evaluation is carried out 10 days after the inoculation. 0% means an efficacy which corresponds to that of the control, whereas an efficacy of 100% means that no infection is observed.

[1] = tested on: Erysiphe graminis f. sp. hordei; assay: Erysiphe test (barley)/protective; assay type: in vivo; conditions: barley plants, protective spray, application rate 750 g/ha, evaluation 7 days after inoculation
Protocol: Erysiphe test (barley)/protective [table] To produce a suitable preparation of active compound, 1 part by weight of active compound is mixed with the stated amounts of solvent and emulsifier, and the concentrate is diluted with water to the desired concentration. To test for protective activity, young cereal plants are sprayed with the preparation of active compound at the stated application rate. 1 day after the treatment, the plants are inoculated with spores of Erysiphe graminis f. sp. hordei. The plants are then placed in a greenhouse at 70% relative atmospheric humidity and a temperature of 18° C. Evaluation is carried out 7 days after the inoculation. 0% means an efficacy which corresponds to that of the control, whereas an efficacy of 100% means that no infection is observed.

Sphaerotheca fuliginea = assay: Sphaerotheca test (cucumber)/protective; assay type: in vivo; conditions: cucumber plants, protective spray, application rate 100 g/ha, evaluation 10 days after inoculation
Protocol: as §1, with “Afier” for “After”, “Sphaerotheca fuliginea.” for “the causative organism of apple mildew Podosphaera leucotricha.”, “placed” for “placed in a greenhouse”, “70% in a greenhouse.” for “70%.”

Cc1ccc(-c2ccccc2NC(=O)c2c(C)nn(C)c2F)cc1Cl [Example 8]
Efficacy in % (Venturia inaequalis): 100% | Efficacy in % (Pyrenophora teres): 100% | Efficacy in % (Podosphaera leucotricha): 98%

Cc1nn(C)c(F)c1C(=O)Nc1ccccc1-c1ccccc1C(F)(F)F [Example 4]
Efficacy in % (Podosphaera leucotricha): 97% | melting point: 103 °C

Cc1nn(C)c(F)c1C(=O)Nc1ccccc1-c1ccccc1F [Example 5]
Efficacy in % (Podosphaera leucotricha): 99% | melting point: 113 °C

Cc1nn(C)c(F)c1C(=O)Nc1ccccc1-c1ccc(Br)cc1 [Example 1, N-[2-(4-bromophcnyl)]-1,3-dimethyl-5-fluoro-pyrazole-4-carboxanilide]
Efficacy in % (Venturia inaequalis): 100% | Efficacy in % [1]: 100% | Efficacy in % (Pyrenophora teres): 100% | Efficacy in % (Podosphaera leucotricha): 100% | melting point: 127 °C | Efficacy in % (Sphaerotheca fuliginea): 95%

Cc1cccc(NC(=O)c2c(C)nn(C)c2F)c1-c1ccccc1 [Example 16]
Efficacy in % [1]: 94% | melting point: 144 °C

Cc1nn(C)c(F)c1C(=O)Nc1ccccc1-c1cccc(C(F)(F)F)c1 [Example 9]
Efficacy in % (Venturia inaequalis): 97% | Efficacy in % (Pyrenophora teres): 100% | Efficacy in % (Podosphaera leucotricha): 100% | melting point: 116 °C | Efficacy in % (Sphaerotheca fuliginea): 94%

Cc1ccccc1-c1ccccc1NC(=O)c1c(C)nn(C)c1F [Example 2]
Efficacy in % [1]: 90% | Efficacy in % (Podosphaera leucotricha): 96% | melting point: 100 °C

Cc1cccc(NC(=O)c2c(C)nn(C)c2F)c1-c1ccc(Cl)cc1 [Example 17]
Efficacy in % [1]: 100% | Efficacy in % (Pyrenophora teres): 100% | melting point: 177 °C
